Measured values from patent US5281583A, “LPS-containing analgesics and veterinary analgesics” (priority 1990, dated 1994).

Legend:
[1] = system: C3H/H male mice; assay: acetic acid-writhing method, intravenous, time course in comparison with phenylbutazone; format: in vivo, mouse; settings: for Writhing frequency / writhing inhibition: Group B, i.v. 1 mg/mouse
From the text: The analgesic effects of the LPSs of the present invention have been confirmed by an experiment using animals according to the acetic acid-writhing method described on page 415 of "Inflammation and anti-inflammatory therapy" issued in 1982 by Ishiyaku Shuppan Co. in Japan, one of the established methods for the determination of the effects of non-narcotic analgesics. The experiment included comparison with the prior art phenylbutazone which is often used to eliminate inflammatory pain.
2) The following preparations were given to six-membered groups of 8 week old C3H/H male mice (body weight: 20-25 g).
Group A: an intravenous solution prepared by dissolving 1 μg by weight/mouse of LPS (wheat LPS prepared in Reference Example 1) in 0.2 ml of physiological saline.
Group B: an intravenous solution prepared by dissolving 1 mg/mouse of the prior art analgesic phenylbutazone in 0.2 ml of 1% aqueous CMC solution.
Group C: 0.2 ml of physiological saline.
0.5 ml of 1% acetic acid was administered intraperitoneally 0.5, 1.5, 3, 8 or 18 hours after the administration of the preparations, and the writhing frequency of the respective mice was counted. The results are shown in Table 9 as an average of six mice in the respective groups. In the table, the writhing inhibition (%) was calculated as follows: [formula]
In the above equation, the writhing frequency in the group C is that obtained in the case where acetic acid was given 30 minutes after the administration of physiological saline, and the counting was made for 30 minutes. The data of the group A was 39, whereas that of the group B was 35.

[2] = system: macrophage peritoneal cells of mice; assay: ability of LPS to activate in vitro TNF productivity of macrophage (TNF activity by cytotoxicity to L929 cells); format: cell-based, mouse
Protocol: In order to determine the ability of LPS to activate the in vitro TNF productivity of macrophage, a recombinant mouse IFN-γ is added to peritoneal macrophage cells of mouse as the primer followed by addition of the LPS as the trigger thereto, and then the TNF activity is determined.
The TNF activity is determined, as follows, on the basis of the cytotoxicity to L929 cells (Proci. Natl. Acad. Sci. U.S.A., 72, pp. 3666-3670, […]). L-929 cells are cultured in Eagles' Minimum Essential Medium (hereunder referred to only as MEM) with 5% fetal calf serum (hereunder referred to only as FCS) added thereto until 100 μl of the medium contains 8×10^4 cells, and then the cells are grown in a flat-bottomed plate having 96 wells.
The growth conditions are 37° C. in the presence of 5% CO2, and under a humidity of 100% for 2 hours, and the procedures may be the same as for the conventional cell culture. Then actinomycin D is added to the medium to a final concentration of 1 μg/ml, and the volume of the culture solution is adjusted to 150 μl. Immediately thereafter 50 μl of the sample diluted appropriately with MEM medium is added to the culture solution. Here, ED50 may be determined by adjusting the dilution appropriately. The L-929 cells having a final volume of 200 μl are cultured for an additional 18 hours under the same conditions as described above.
In order to determine the cell necrosis activity, first the whole medium is removed followed by addition of a 1% methyl alcoholic solution containing 0.1% crystal violet for fixation staining. Crystal violet stains all the eukaryotic cells, but the dead cells are removed off from the bottom of the flask only by washing after the staining; so the cell necrosis activity may be determined directly. The staining degree is measured on the basis of adsorption at OD590 nm, and is compared with that of a control to determine the cell necrosis activity. This activity is defined as follows.
The dilution of the sample which allows 50% of the L-929 cells to survive (N) is determined. Rabbit TNS is used as the control, and its activity n (units/ml) is determined using 2.4×10^6 units/mg/ml of TNF-α. The dilution which provides ED50 of rabbit TNS is determined.
The activity of the sample (units/ml) is calculated by the equation N/C×n.
Two hundred μl (2×10^5 cells)/well of macrophage peritoneal cells of mice (each group comprised three mice of 9 weeks old and having an average weight of 29 g) were placed in a flat-bottomed plate having 96 wells, and 10 μl of recombinant IFN-γ (100 units/ml) as a primer was placed in the respective wells. Separately, extracts prepared by extraction of various LPS sources with hot water at 65° C. for 5 hrs. were diluted to various degrees, and then were administered as triggers to the cells three hours after the administration of the primer in a proportion of 10 μl/well. After two hour culture, the culture solutions were subjected to centrifugation at 3,000 G for 20 min. A pipette was used to collect 130 μl of the supernatant from the respective wells, and the TNF activity was determined on the basis of the toxicity to L929 cells. The limulus test-positive LPS content was determined using Toxicolor System® commercially available from Sei-Kagaku Kogyo Co. in Japan.
The values were plotted to prepare a graph wherein the quantity of the TNF produced (units/ml of culture solution) was plotted along the axis of ordinate, whereas the corresponding limulus test-positive LPS content (ng/ml of culture solution) was plotted along the axis of abscissa (on a logarithmic scale), and a sigmoid curve was prepared on the basis of the plotted points. The macrophage activation ability was estimated to be 0% in the case where it corresponded to the quantity of TNF produced by macrophage with no trigger added thereto, and 100% was assigned to the macrophage activation ability which provided the maximal constant of TNF. […]

[3] = LPS 2 ng/ml of culture solution
[4] = LPS 24 ng/ml of culture solution
[5] = LPS 240 ng/ml of culture solution
[6] = LPS 2400 ng/ml of culture solution

Molecule: CCCCC1C(=O)N(c2ccccc2)N(c2ccccc2)C1=O [phenylbutazone]
- significance of analgesic effects (double-sided t test) ([1]; 3 hours after administration): no significant analgesic effects
- Writhing frequency ([1]; time lapsed 0.5 h): 18
- writhing inhibition ([1]; time lapsed 0.5 h): 49%
- Writhing frequency ([1]; time lapsed 1.5 h): 7
- writhing inhibition ([1]; time lapsed 1.5 h): 80%
- Writhing frequency ([1]; time lapsed 3 h): 25
- writhing inhibition ([1]; time lapsed 3 h): 29%

Molecule: Lipid A
- TNF produced [2, 3]: 4.7 units/ml of culture solution
- macrophage activation ability [2, 3]: 37%
- TNF produced [2, 4]: 9.4 units/ml of culture solution
- macrophage activation ability [2, 4]: 80%
- TNF produced [2, 5]: 11.1 units/ml of culture solution
- macrophage activation ability [2, 5]: 96%
- TNF produced [2, 6]: 11.5 units/ml of culture solution
- macrophage activation ability [2, 6]: 100%
